The record followed here is ChEMBL document CHEMBL4325912, “Discovery of 2-(1H-imidazo-2-yl)piperazines as a new class of potent and non-cytotoxic inhibitors of Trypanosoma brucei growth in vitro” (Bioorg Med Chem Lett, 2018).

What is called EC50 is the concentration giving half of the maximal effect. By CC50 is commonly meant the concentration giving 50% cytotoxicity. By half-life is commonly meant the time in which the quantity being followed falls by half. A higher half-life goes with slow decline.

The subject of series [1] is Plasmodium falciparum. Briefly: Antimalarial activity against Plasmodium falciparum 3D7 infected in human erythrocytes after 72 hrs by spectrophotometric analysis. In kind it is functional, organism-based. Conditions: 3D7, 72 h.
For series [2], the system named is Trypanosoma brucei. Briefly: Antitrypanosomal activity against Trypanosoma brucei Lister 427 bloodstream forms in presence of 10% FBS after 24 hrs by celltiter glo assay. In kind it is functional, organism-based. As to conditions: Lister 427, 24 h. In general terms: ATP-based viability assays read luminescence as a measure of living cells.
Series [3] is described as follows: Selectivity index, ratio of EC50 for Plasmodium falciparum 3D7 infected in human erythrocytes to EC50 for antitrypanosomal activity against Trypanosoma brucei Lister 427 bloodstream forms. The series is classed as functional.
The subject of series [4] is Trypanosoma cruzi. Briefly: Antiparasitic activity against Trypanosoma cruzi. The series is classed as functional, organism-based.
A short description of series [5]: Cytotoxicity against HUVEC. In kind it is cell-based. Conditions: human.
A short description of series [6]: Selectivity index, ratio of EC50 for Trypanosoma cruzi to EC50 for antitrypanosomal activity against Trypanosoma brucei Lister 427 bloodstream forms. In kind it is functional.
Series [7] can be described thus: Half life in mouse hepatocytes. The series is classed as ADME, cell-based, Hepatocyte.
A short description of series [8]: Half life in human hepatocytes. In kind it is ADME, cell-based, Hepatocyte.
The nature of series [9]: Cytotoxicity against human HeLa cells assessed as reduction in cell viability after 72 hrs by celltiter glo assay. The series is classed as cell-based.

As for `COc1ccc2[nH]c(C)c(CC(=O)N3CCN(CC4CCOC4)CC3c3ncc(-c4ccc5ccccc5c4)[nH]3)c2c1` (mixture of isomers), the EC50 came out at 3.62 µM in series [1], 0.005 µM in series [2] and 8.12 µM in [4]. In addition, the “Ratio EC50” value in series [3] and in [6] was 1000 in each case. The molecule further came in with a CC50 in series [5] of 18.7 µM. The half-life in series [7] was 0.4 h; in series [8] it was 2.4 h. The CC50 at 72 h in series [9] is more than 25 µM.
